Reference: article PMC5218480 (PLoS ONE, 2017)

Tested on: MV-4-11 cells
Experiment: Gene expression microarray analysis (Affymetrix PrimeView) and GSEA
Format: cell-based, human
Set-up: RFU PODN (11730768_x_at) / Fold change /veh PODN (11730768_x_at) / RFU LINC00158 (11744669_a_at) / Fold change /veh LINC00158 (11744669_a_at) / RFU DUSP10 (11751237_a_at) / Fold change /veh DUSP10 (11751237_a_at) / RFU ID3 (11757404_x_at) / Fold change /veh ID3 (11757404_x_at) / RFU PLEKHG5 (11737974_s_at) / Fold change /veh PLEKHG5 (11737974_s_at) / RFU LRRC4B (11730491_at) / Fold change /veh LRRC4B (11730491_at) / RFU GIMAP4 (11747438_a_at) / Fold change /veh GIMAP4 (11747438_a_at) / RFU KRT8 (11758183_x_at) / Fold change /veh KRT8 (11758183_x_at) / RFU CNN1 (11734310_a_at) / Fold change /veh CNN1 (11734310_a_at) / RFU VPS37D (11726825_at) / Fold change /veh VPS37D (11726825_at) / RFU C10orf10 (11716522_x_at) / Fold change /veh C10orf10 (11716522_x_at) / RFU KIR2DL2 /// KIR2DL4 /// KIR2DL5A /// KIR2DL5B /// KIR2DS1 /// KIR2DS2 /// KIR2DS3 /// KIR2DS4 /// KIR3DL3 /// KIR3DL3 /// KIR3DS1 (11738374_at) / Fold change /veh KIR2DL2 /// KIR2DL4 /// KIR2DL5A /// KIR2DL5B /// KIR2DS1 /// KIR2DS2 /// KIR2DS3 /// KIR2DS4 /// KIR3DL3 /// KIR3DL3 /// KIR3DS1 (11738374_at) / RFU C1QL1 (11718748_at) / Fold change /veh C1QL1 (11718748_at) / RFU TMPRSS4 (11747572_a_at) / Fold change /veh TMPRSS4 (11747572_a_at) / RFU HAMP (11756126_x_at) / Fold change /veh HAMP (11756126_x_at) / RFU RNFT2 (11725882_a_at) / Fold change /veh RNFT2 (11725882_a_at) / RFU NR4A2 (11747474_a_at) / Fold change /veh NR4A2 (11747474_a_at) / RFU ABCC12 (11746883_a_at) / Fold change /veh ABCC12 (11746883_a_at) / RFU TMEM136 (11760407_x_at) / Fold change /veh TMEM136 (11760407_x_at) / RFU CLDN22 /// WWC2 (11732394_at) / Fold change /veh CLDN22 /// WWC2 (11732394_at) / RFU HLA-DPB1 (11760878_x_at) / Fold change /veh HLA-DPB1 (11760878_x_at) / RFU SPINT1 (11716480_a_at) / Fold change /veh SPINT1 (11716480_a_at) / RFU GAP43 (11754022_s_at) / Fold change /veh GAP43 (11754022_s_at) / RFU A4GNT (11735810_at) / Fold change /veh A4GNT (11735810_at) / RFU PRB3 (11715151_x_at) / Fold change /veh PRB3 (11715151_x_at) / RFU TUBB4B (11761932_at) / Fold change /veh TUBB4B (11761932_at) / RFU CAPN14 (11732068_a_at) / Fold change /veh CAPN14 (11732068_a_at) / RFU TMCC2 (11721928_a_at) / Fold change /veh TMCC2 (11721928_a_at) / RFU IRGQ (11745062_a_at) / Fold change /veh IRGQ (11745062_a_at) / RFU FAM174B (11720279_a_at) / Fold change /veh FAM174B (11720279_a_at) / RFU TMPRSS4 (11748680_a_at) / Fold change /veh TMPRSS4 (11748680_a_at) / RFU FAM212B (11763350_a_at) / Fold change /veh FAM212B (11763350_a_at) / RFU PLEKHG5 (11743358_a_at) / Fold change /veh PLEKHG5 (11743358_a_at) / RFU ZSCAN30 (11745921_a_at) / Fold change /veh ZSCAN30 (11745921_a_at) / RFU CMKLR1 (11741424_a_at) / Fold change /veh CMKLR1 (11741424_a_at) / RFU LOC101060620 /// MAPK8IP1 (11723275_at) / Fold change /veh LOC101060620 /// MAPK8IP1 (11723275_at) / RFU SPTSSB (11747773_x_at) / Fold change /veh SPTSSB (11747773_x_at) / RFU PRSS12 (11739890_at) / Fold change /veh PRSS12 (11739890_at) / RFU BIN1 (11741810_x_at) / Fold change /veh BIN1 (11741810_x_at) / RFU WNT11 (11732464_a_at) / Fold change /veh WNT11 (11732464_a_at) / RFU C10orf10 (11716521_a_at) / Fold change /veh C10orf10 (11716521_a_at) / RFU C5orf56 (11738089_at) / Fold change /veh C5orf56 (11738089_at) / RFU CYB561 (11721691_x_at) / Fold change /veh CYB561 (11721691_x_at) / RFU ANKRD19P (11752326_a_at) / Fold change /veh ANKRD19P (11752326_a_at) / RFU OR2T12 /// OR2T33 /// OR2T8 (11738714_s_at) / Fold change /veh OR2T12 /// OR2T33 /// OR2T8 (11738714_s_at) / RFU VCAN (11748164_a_at) / Fold change /veh VCAN (11748164_a_at) / RFU JSRP1 (11732532_at) / Fold change /veh JSRP1 (11732532_at) / RFU KRTAP10-11 (11738290_x_at) / Fold change /veh KRTAP10-11 (11738290_x_at) / RFU MYO3A (11730013_a_at) / Fold change /veh MYO3A (11730013_a_at) / RFU EBF3 (11725865_a_at) / Fold change /veh EBF3 (11725865_a_at) / RFU CAMK2N1 (11719241_x_at) / Fold change /veh CAMK2N1 (11719241_x_at) / RFU C5orf56 (11738088_a_at) / Fold change /veh C5orf56 (11738088_a_at) / RFU OLFML3 (11715873_a_at) / Fold change /veh OLFML3 (11715873_a_at) / RFU LOC100653217 /// NTM (11731650_a_at) / Fold change /veh LOC100653217 /// NTM (11731650_a_at) / RFU MAPK11 (11762145_a_at) / Fold change /veh MAPK11 (11762145_a_at) / RFU FIZ1 (11724087_x_at) / Fold change /veh FIZ1 (11724087_x_at) / RFU OASL (11726364_x_at) / Fold change /veh OASL (11726364_x_at) / RFU SOX15 (11748057_x_at) / Fold change /veh SOX15 (11748057_x_at) / RFU CD79A (11719716_a_at) / Fold change /veh CD79A (11719716_a_at) / RFU HIST1H1D (11736915_at) / Fold change /veh HIST1H1D (11736915_at) / RFU CASKIN2 (11723855_a_at) / Fold change /veh CASKIN2 (11723855_a_at) / RFU LOC730098 (11760151_x_at) / Fold change /veh LOC730098 (11760151_x_at) / RFU OR4N2 (11742367_at) / Fold change /veh OR4N2 (11742367_at) / RFU PRRT2 (11749266_a_at) / Fold change /veh PRRT2 (11749266_a_at) / RFU SNX32 (11753110_a_at) / Fold change /veh SNX32 (11753110_a_at) / RFU CDHR5 (11726645_a_at) / Fold change /veh CDHR5 (11726645_a_at) / RFU RCAN1 (11760418_a_at) / Fold change /veh RCAN1 (11760418_a_at) / RFU FAM167A (11723789_a_at) / Fold change /veh FAM167A (11723789_a_at) / RFU FAM26E (11764081_at) / Fold change /veh FAM26E (11764081_at) / RFU ISYNA1 (11749810_s_at) / Fold change /veh ISYNA1 (11749810_s_at) / RFU ACY1 (11761880_at) / Fold change /veh ACY1 (11761880_at) / RFU 11764098_at / Fold change /veh 11764098_at / RFU SAMD14 (11745864_x_at) / Fold change /veh SAMD14 (11745864_x_at) / RFU NPB (11741838_a_at) / Fold change /veh NPB (11741838_a_at) / RFU TMPRSS6 (11731388_a_at) / Fold change /veh TMPRSS6 (11731388_a_at) / RFU KRTAP10-2 (11738614_at) / Fold change /veh KRTAP10-2 (11738614_at) / RFU ARHGAP8 /// PRR5-ARHGAP8 (11727945_x_at) / Fold change /veh ARHGAP8 /// PRR5-ARHGAP8 (11727945_x_at) / RFU KRTAP5-7 /// NADSYN1 (11734609_at) / Fold change /veh KRTAP5-7 /// NADSYN1 (11734609_at) / RFU RASL12 (11751679_a_at) / Fold change /veh RASL12 (11751679_a_at) / RFU CDKN2B (11736163_a_at) / Fold change /veh CDKN2B (11736163_a_at) / RFU PRF1 (11729649_at) / Fold change /veh PRF1 (11729649_at) / RFU, ZNF638 /// ZNF638-IT1 / Fold change vs veh, ZNF638 /// ZNF638-IT1 / RFU, PANK3 / Fold change vs veh, PANK3 / RFU, SH3YL1 / Fold change vs veh, SH3YL1 / RFU, ZEB2 / Fold change vs veh, ZEB2 / RFU, NRIP1 / Fold change vs veh, NRIP1 / RFU, PTTG1IP / Fold change vs veh, PTTG1IP / RFU, CAPN2 / Fold change vs veh, CAPN2 / RFU, MED14 / Fold change vs veh, MED14 / RFU, SNORA58 / Fold change vs veh, SNORA58 / RFU, C1orf63 / Fold change vs veh, C1orf63 / RFU, LRRFIP1 / Fold change vs veh, LRRFIP1 / RFU, NDUFAF7 / Fold change vs veh, NDUFAF7 / RFU, SLC12A2 / Fold change vs veh, SLC12A2 / RFU, IBTK / Fold change vs veh, IBTK / RFU, ESF1 / Fold change vs veh, ESF1 / Fold change vs veh, TMEM50B / RFU, TAOK1 / Fold change vs veh, TAOK1 / RFU, ACBD3 / Fold change vs veh, ACBD3 / RFU, TMA16 / Fold change vs veh, TMA16 / RFU, RWDD3 / Fold change vs veh, RWDD3 / RFU, BCAT1 / Fold change vs veh, BCAT1 / RFU, EDEM3 / Fold change vs veh, EDEM3 / RFU, TMEM33 / Fold change vs veh, TMEM33 / RFU, WDR75 / Fold change vs veh, WDR75 / RFU, AHCTF1 / Fold change vs veh, AHCTF1 / RFU, TFRC / Fold change vs veh, TFRC / RFU, ZDHHC17 / Fold change vs veh, ZDHHC17 / RFU, NOM1 / Fold change vs veh, NOM1 / RFU, ARL8B / Fold change vs veh, ARL8B / RFU, ZBTB11 / Fold change vs veh, ZBTB11 / RFU, TAMM41 / Fold change vs veh, TAMM41 / RFU, KIAA1704 /// LOC100996395 / Fold change vs veh, KIAA1704 /// LOC100996395 / RFU, ING1 / Fold change vs veh, ING1 / RFU, TRMT61B / Fold change vs veh, TRMT61B / RFU, FUBP3 / Fold change vs veh, FUBP3 / RFU, TP53 / Fold change vs veh, TP53 / RFU, TNKS2 / Fold change vs veh, TNKS2 / RFU, ZFP14 / Fold change vs veh, ZFP14 / RFU, ACTR2 / Fold change vs veh, ACTR2 / RFU, PPP3R1 / Fold change vs veh, PPP3R1 / RFU, PIK3R1 / Fold change vs veh, PIK3R1 / RFU, HNRNPA1 / Fold change vs veh, HNRNPA1 / RFU, RNF170 / Fold change vs veh, RNF170 / RFU, ZNF28 / Fold change vs veh, ZNF28 / RFU, RNGTT / Fold change vs veh, RNGTT / RFU, OGT / Fold change vs veh, OGT / RFU, BRD1 / Fold change vs veh, BRD1 / RFU, MARS / Fold change vs veh, MARS / RFU, ZNF655 / Fold change vs veh, ZNF655 / RFU, FAHD1 / Fold change vs veh, FAHD1 / RFU, BDP1 / Fold change vs veh, BDP1 / RFU, LRRCC1 / Fold change vs veh, LRRCC1 / RFU, ARID1A / Fold change vs veh, ARID1A / RFU, ZNF146 / Fold change vs veh, ZNF146 / RFU, ZNF330 / Fold change vs veh, ZNF330 / RFU, GPN3 / Fold change vs veh, GPN3 / RFU, C9orf123 / Fold change vs veh, C9orf123 / RFU, N4BP2L2 / Fold change vs veh, N4BP2L2 / RFU, ARFIP1 / Fold change vs veh, ARFIP1 / RFU, FAM179B / Fold change vs veh, FAM179B / RFU, BCL10 / Fold change vs veh, BCL10 / RFU, UHRF1BP1L / Fold change vs veh, UHRF1BP1L / RFU, BET1 / Fold change vs veh, BET1 / RFU, CNOT2 / Fold change vs veh, CNOT2 / RFU, ZNF268 / Fold change vs veh, ZNF268 / Fold change vs veh, ZNF507 / RFU, DGCR2 / Fold change vs veh, DGCR2 / RFU, WDSUB1 / Fold change vs veh, WDSUB1 / Fold change vs veh, HSP90B1 /// MIR3652 / RFU, ADSS / Fold change vs veh, ADSS / RFU, GK / Fold change vs veh, GK / RFU, ZNF148 / Fold change vs veh, ZNF148 / RFU, TAF9 / Fold change vs veh, TAF9 / RFU, SLC1A5 / Fold change vs veh, SLC1A5 / RFU, SLMO2 / Fold change vs veh, SLMO2 / RFU, ABCC4 / Fold change vs veh, ABCC4 / RFU, LOC101060439 /// RAP1B / Fold change vs veh, LOC101060439 /// RAP1B / RFU, RFX7 / Fold change vs veh, RFX7 / RFU, GTPBP10 / Fold change vs veh, GTPBP10 / RFU, CNEP1R1 / Fold change vs veh, CNEP1R1 / RFU, BIVM-ERCC5 /// ERCC5 / Fold change vs veh, BIVM-ERCC5 /// ERCC5 / RFU, ILF3 / Fold change vs veh, ILF3 / RFU 11762660_at / Fold change /veh 11762660_at / RFU VCAN (11757783_s_at) / Fold change /veh VCAN (11757783_s_at) / RFU DDX43 (11728927_at) / Fold change /veh DDX43 (11728927_at) / RFU KRT8 (11758188_x_at) / Fold change /veh KRT8 (11758188_x_at) / RFU NKD1 (11759106_at) / Fold change /veh NKD1 (11759106_at) / RFU SRD5A1 (11742802_a_at) / Fold change /veh SRD5A1 (11742802_a_at) / RFU TPSAB1 /// TPSB2 (11721975_s_at) / Fold change /veh TPSAB1 /// TPSB2 (11721975_s_at) / RFU GSTM3 (11746129_a_at) / Fold change /veh GSTM3 (11746129_a_at) / RFU IL23R (11737362_x_at) / Fold change /veh IL23R (11737362_x_at) / RFU TMEM51 (11727254_a_at) / Fold change /veh TMEM51 (11727254_a_at) / RFU PIWIL2 (11732686_x_at) / Fold change /veh PIWIL2 (11732686_x_at) / RFU ORM1 (11744905_x_at) / Fold change /veh ORM1 (11744905_x_at) / RFU CCDC152 (11743942_at) / Fold change /veh CCDC152 (11743942_at) / RFU ECM1 (11717891_a_at) / Fold change /veh ECM1 (11717891_a_at) / RFU IL23R (11748794_a_at) / Fold change /veh IL23R (11748794_a_at) / RFU TNFAIP8L3 (11732012_x_at) / Fold change /veh TNFAIP8L3 (11732012_x_at) / RFU MBOAT4 (11741988_at) / Fold change /veh MBOAT4 (11741988_at) / RFU 11764193_at / Fold change /veh 11764193_at / RFU TMEM53 (11763286_at) / Fold change /veh TMEM53 (11763286_at) / RFU MAGEB2 (11727129_at) / Fold change /veh MAGEB2 (11727129_at) / RFU TMEM200A (11744735_a_at) / Fold change /veh TMEM200A (11744735_a_at) / RFU CCDC152 (11751479_a_at) / Fold change /veh CCDC152 (11751479_a_at) / RFU FAM211A (11726209_a_at) / Fold change /veh FAM211A (11726209_a_at) / RFU RGS16 (11746705_a_at) / Fold change /veh RGS16 (11746705_a_at) / RFU VCAN (11755009_s_at) / Fold change /veh VCAN (11755009_s_at) / RFU RHOB (11743442_s_at) / Fold change /veh RHOB (11743442_s_at) / RFU RGS16 (11720943_a_at) / Fold change /veh RGS16 (11720943_a_at) / RFU RGS16 (11720944_at) / Fold change /veh RGS16 (11720944_at) / RFU, VPS4B / Fold change vs veh, VPS4B / RFU, CREB1 / Fold change vs veh, CREB1 / RFU, DNAJC13 / Fold change vs veh, DNAJC13 / RFU, GNAQ / Fold change vs veh, GNAQ / RFU, CDK5R1 / Fold change vs veh, CDK5R1 / RFU, ZRANB3 / Fold change vs veh, ZRANB3 / RFU, CUL4A / Fold change vs veh, CUL4A / RFU, CCNY / Fold change vs veh, CCNY / RFU, UFL1 / Fold change vs veh, UFL1 / RFU, COG3 / Fold change vs veh, COG3 / RFU, DIAPH2 / Fold change vs veh, DIAPH2 / RFU, SKA2 / Fold change vs veh, SKA2 / RFU, AFF3 / Fold change vs veh, AFF3 / RFU, LMF1 / Fold change vs veh, LMF1 / RFU, IPO11 / Fold change vs veh, IPO11 / RFU, DFFB / Fold change vs veh, DFFB / RFU, FOXP1 / Fold change vs veh, FOXP1 / RFU, CARD8 / Fold change vs veh, CARD8 / RFU, STRN3 / Fold change vs veh, STRN3 / RFU, ADK / Fold change vs veh, ADK / RFU, RASSF2 / Fold change vs veh, RASSF2 / RFU, WIPF1 / Fold change vs veh, WIPF1 / RFU, LARP1B / Fold change vs veh, LARP1B / RFU, RASA1 / Fold change vs veh, RASA1 / RFU, RB1 / Fold change vs veh, RB1 / RFU, PPFIA1 / Fold change vs veh, PPFIA1 / RFU, MAT2A / Fold change vs veh, MAT2A / RFU, CCT5 / Fold change vs veh, CCT5 / RFU, WDR92 / Fold change vs veh, WDR92 / RFU, CUX1 / Fold change vs veh, CUX1 / RFU, TTC7A / Fold change vs veh, TTC7A / RFU, TMEM135 / Fold change vs veh, TMEM135 / RFU, DEPTOR / Fold change vs veh, DEPTOR / RFU, CPM / Fold change vs veh, CPM / RFU, DNAJB6 / Fold change vs veh, DNAJB6 / RFU, CACNA2D3 / Fold change vs veh, CACNA2D3 / RFU, DTX4 / Fold change vs veh, DTX4 / RFU, TFCP2 / Fold change vs veh, TFCP2 / RFU, GMCL1 /// GMCL1P1 / Fold change vs veh, GMCL1 /// GMCL1P1 / RFU, AEBP2 / Fold change vs veh, AEBP2 / RFU, SNHG1 /// SNORD22 /// SNORD25 /// SNORD26 /// SNORD27 /// SNORD28 /// SNORD29 /// SNORD31 / Fold change vs veh, SNHG1 /// SNORD22 /// SNORD25 /// SNORD26 /// SNORD27 /// SNORD28 /// SNORD29 /// SNORD31 / Fold change (Aza/veh), C12orf56 (ProbeSet 11735607_a_at) / Fold change (ACY-1035/veh), C12orf56 (ProbeSet 11735607_a_at) / Fold change (Aza/veh), FGFR1OP (ProbeSet 11751329_s_at) / Fold change (ACY-1035/veh), FGFR1OP (ProbeSet 11751329_s_at) / Fold change (Aza/veh), VPS36 (ProbeSet 11739960_a_at) / Fold change (ACY-1035/veh), VPS36 (ProbeSet 11739960_a_at) / RFU SYPL1 (11715823_x_at) / Fold change /veh SYPL1 (11715823_x_at) / RFU IGFBP7 (11715501_s_at) / Fold change /veh IGFBP7 (11715501_s_at) / RFU REEP3 (11722064_at) / Fold change /veh REEP3 (11722064_at) / RFU IGLL1 (11728026_x_at) / Fold change /veh IGLL1 (11728026_x_at): dose or concentration left out as unconfirmed
Details: MV-4-11 cells, 48 hours

Nc1ccc(-c2cccs2)cc1NC(=O)c1ccc2c(c1)cc(C1CC1)n2CCN1CCOCC1 [ACY-1035]
Fold change /veh FAM211A (11726209_a_at): 1.04
